Results from patent US9566264B2, “Combinations and methods” (Euthymics Bioscience, Inc., priority 2013, dated 2017).
Where a name gives a salt, the structure may show the parent alone. Read-outs that look alike come from different tables or passages of the source.

What was measured:
CYP2B6 = biological target: T1, CYP2B6 (Homo sapiens, UniProt P20813); assay: Inhibition of human CYP activity in microsomes: bupropion hydroxylation; conditions: pooled human liver microsomes, 10 to 30 min at 37° C.
T1 sequence (P20813 1-491): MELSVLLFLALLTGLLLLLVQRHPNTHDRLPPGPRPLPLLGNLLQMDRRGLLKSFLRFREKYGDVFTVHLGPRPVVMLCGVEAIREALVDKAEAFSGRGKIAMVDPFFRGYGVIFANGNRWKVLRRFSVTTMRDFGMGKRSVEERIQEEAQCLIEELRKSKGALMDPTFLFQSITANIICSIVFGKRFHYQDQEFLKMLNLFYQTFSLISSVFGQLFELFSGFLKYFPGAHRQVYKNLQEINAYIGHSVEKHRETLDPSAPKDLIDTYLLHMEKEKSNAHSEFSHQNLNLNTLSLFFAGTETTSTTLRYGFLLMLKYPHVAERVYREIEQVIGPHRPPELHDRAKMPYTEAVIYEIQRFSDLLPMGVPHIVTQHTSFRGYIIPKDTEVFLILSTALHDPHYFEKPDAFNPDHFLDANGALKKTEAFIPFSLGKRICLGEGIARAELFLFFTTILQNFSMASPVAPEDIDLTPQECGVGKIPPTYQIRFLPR

CYP2C19 = CYP2C19 (Homo sapiens, UniProt P33261); assay: Inhibition of human CYP activity in microsomes: (S)-mephenytoin 4′-hydroxylation; conditions: pooled human liver microsomes, 10 to 30 min at 37° C.
Sequence of CYP2C19 (P33261 whole entry): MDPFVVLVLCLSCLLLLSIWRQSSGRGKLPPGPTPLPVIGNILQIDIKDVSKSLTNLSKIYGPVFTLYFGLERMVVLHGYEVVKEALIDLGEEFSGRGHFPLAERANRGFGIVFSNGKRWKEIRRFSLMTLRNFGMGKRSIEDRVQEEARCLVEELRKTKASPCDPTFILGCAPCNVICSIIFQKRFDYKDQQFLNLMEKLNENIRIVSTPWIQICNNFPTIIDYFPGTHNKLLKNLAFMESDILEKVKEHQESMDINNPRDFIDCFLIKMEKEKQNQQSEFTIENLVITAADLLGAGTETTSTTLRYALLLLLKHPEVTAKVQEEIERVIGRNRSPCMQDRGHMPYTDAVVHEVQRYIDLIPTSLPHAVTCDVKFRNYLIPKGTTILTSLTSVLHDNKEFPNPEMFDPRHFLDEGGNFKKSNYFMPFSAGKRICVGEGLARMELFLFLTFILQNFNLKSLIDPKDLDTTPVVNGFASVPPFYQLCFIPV

Caco-2 cells = assay: Caco-2 bi-directional permeability assay; assay type: in vitro ADME, human
Procedure: Caco-2 cells are obtained from American Type Culture Collection (ATCC, Manassas, Va.) and are grown to confluence for 14-21 days on 1 μm filters in 24 well plates. […] Receiver solutions consist of buffer only. Sequential samples of transported solute are taken at 20 minute intervals in duplicate over 2 hours and the concentration of the transported compound is determined by HPLC-UV/MS. Test sample concentration is determined by LC/MS. Permeability coefficients are calculated for each sampling interval, and averages from the intervals are determined. The apparent permeability coefficient Papp is calculated from the equation
[formula] where dQ/dt is the rate of permeation of drug across the cells, C0 is the original concentration in donor compartment at time zero, and A is the area of the cell monolayer. Mass balance in the system is ascertained by comparing the sum of transported solute and remaining donor solute to the starting solution concentration.

human hepatocytes [1] = conditions: male, 4 h
Procedure: (§1) Cryopreserved human hepatocytes (male) that are prepared by XenoTech, LLC (Lenexa, Kans.), are thawed on the day of use and resuspended in Waymouth's incubation media. The enzymatic activity of hepatocytes is monitored using 7-ethoxycoumarin and 7-hydroxycoumarin as substrates. […] The incubations are carried out for 4 hours with 1×10^6 viable cells/ml. […] At 0 and 4 hour, cell suspensions are extracted using two volumes of ice cold methanol. After centrifugation, the extracts are stored at −20° C. until further sample processing. The solvent in the samples are dried under a stream of nitrogen, and resuspended in methanol:water (1:1) before analysis.
(§2) The extracts of the 4 hour incubation mixture are analyzed by liquid chromatography/electrospray ionization-mass spectrometry (LC/ESI-MS) in the positive and negative ion modes to screen for possible metabolites. […] The same instrumentation and methods in HPLC Method 1 are used in HPLC Method 2 with the exception that the mobile phases and gradient are 0.4% HCOOH in H2O for mobile A and CH3OH for mobile phase B. The mass spectrometer is LCQ™ Ion Trap Mass Spectrometer and is in either the positive or negative electrospray mode with the ion spray set at 4.5 kV. The capillary temperature is 250° C., the nitrogen sheath gas flow rate is ˜80 unit, the auxiliary nitrogen gas flow rate is 20 unit, and the collision gas is helium.

[2] = NADPH-dependent lactam formation in human liver microsomes; assay type: in vitro ADME; conditions: for formation: area under the curve ratio of analyte to internal standard bicifadine-d5: 10 μM parent, 30 minutes, mean ± SD
Procedure: The effect of NADPH on lactam formation ((1S,5R)-5-(3,4-dichlorophenyl)-3-azabicyclo[3.1.0]hexan-2-one hydrochloride, Compound 2) is conducted by XenoBiotic Laboratories, Inc. (Plainsboro, N.J.). […] Bicifadine ((±)-1-(4-methylphenyl)-3-azabicyclo-[3.1.0]hexane HCl) (10 μM) is used as a positive control and the formation of the lactam metabolite of bicifadine (designated M12) is also monitored. Negative controls are determined by incubation of amitifadine and bicifadine in the absence of liver enzymes. The samples are analyzed using LC-MS/MS.
The system controller for the HPLC system is a Shimadzu SCL-10Avp, the pump model is a Shimadzu LC-10Avp, and the autosampler model is Shimadzu HTA. The analytical column is Phenomenex Luna C18 5 μm 50×2.0 mm which is set at room temperature and the autosampler is also at room temperature. The injection volume is 5 μl. Mobile phase A is 0.05% formic acid in water and mobile phase B is 0.05% formic acid in acetonitrile. The flow rate is 0.7 ml/minute and run time is 5 minutes. The mass spectrometer is an AB MDX Sciex API-4000 run in the turbo ion spray (ESI) positive ion detection mode and the scan mode is multiple reaction monitoring (MRM). The optimized mass spectrometry conditions are ion spray at 5000 V, curtain gas 10 units temperature 500° C., entrance potential 10 V, collision gas 6 units, and gas 1 and 2 each 50 units.

[3] = Flavin monooxygenase (FMO)-dependent lactam formation screening (pre-incubation temperature); assay type: in vitro ADME, human; conditions: for formation: area under the curve ratio of analyte to internal standard bicifadine-d5: 1 mM NADPH, mean ± SD; for formation after 37° C. pre-incubation versus 45° C. pre-incubation: 5 minute pre-incubation
Procedure: FMOs, but not CYP enzymes, are sensitive to elevated incubation temperature. Thus, to determine if the formation of the lactam metabolite is mediated by FMOs and/or CYPs, the effect of pre-incubation temperature on the lactam formation is conducted by XenoBiotic Laboratories, Inc. (Plainsboro, N.J.). […] The incubation of benzydamine (positive control, 200 μM) is carried out concurrently. The samples are analyzed using LC-MS/MS (see NADPH-dependent lactam formation methodology).

[4] = MAO phenotyping with MAO inhibitors in human liver mitochondria; assay type: in vitro ADME; conditions: 1 μM parent, 30 minutes at 37° C.
Procedure: A study on the role of monoamine oxidases involved in the formation of the lactam metabolite is conducted by XenoBiotic Laboratories, Inc. (Plainsboro, N.J.).

[5] = Brain and plasma levels of amitifadine and lactam metabolite Compound 2 in rat; assay type: in vivo; parameters: plasma level, mean±SEM: unit not given here; conditions: for plasma level, mean±SEM: amitifadine 10 mg/kg po
Procedure: The studies are conducted in accordance with the Institutional Animal Care and Use Committee guidelines. […] At 0.5, 1, 2, and 4 hour after dosage, animals are briefly anesthetized in a chamber containing 4% isoflurane and rapidly decapitated. Trunk blood is collected in heparinized tubes (9 units/ml whole blood), immediately chilled to 4° C., centrifuged, and the plasma is frozen at −80° C. until analyzed. Brains are quickly removed, bisected along the midline, and frozen at −80° C. until analyzed.
Plasma and brain samples are allowed to thaw on ice and are homogenized in a 20 ml glass vial in two volumes of ice cold water using a handheld homogenizer (VDI 12, VWR International). Standard curves are prepared in water, control plasma, and control brain homogenate. Equal volumes (100 μl) of plasma or brain homogenate samples, distilled water and internal standard are mixed in 1.5 ml polypropylene tubes and 300 μl of acetonitrile is added to each mixture. Samples are then mixed thoroughly by placing on a shaker at 200 RPM for 40 minutes at room temperature. The samples are then centrifuged at 10,000×g for 10 minutes at 4° C. and the supernatant (200 μl) is transferred to a tube containing 2 μl of 10% formic acid. The samples are subjected to a Zorbax SBC18 Solvent Saver Plus 3.0×150 mm 3.5-μm column on a Shimadzu Prominence LC. […] The concentration of compound in the column effluent is measured using an Applied Biosystems API-3200 triple quadrupole mass spectrometer.

monoamine transporters = assay: Affinity for monoamine transporters; assay type: binding
human hepatocytes [6] = assay: In vitro metabolism in human hepatocytes; conditions: 100 μM, 4 hours incubation
Procedure: as §1, §2

[7] = Human plasma protein binding (ultrafiltration); assay type: in vitro ADME
Procedure: Samples of test drug in triplicate are mixed and incubated in Millipore Multiscreen filter plates with Ultracel-10 regenerated cellulose membranes for 60 minutes at 37° C. Following incubation, samples undergo centrifugation for 60 minutes at 2000×g and the filtrate is collected. Percent protein bound is determined from the concentration of free compound present in the filtrate following comparison to a standard curve of test drug. […] The flow rate is 1 ml/min and the column temperature is maintained at 50° C. The solvent is a gradient of solvent A composed of 0.1% formic acid in water and solvent B composed of acetonitrile with 0.07% formic acid.

[8] = microsomes pre-incubated at 37° C. for 5 minutes
[9] = microsomes pre-incubated at 45° C. for 5 minutes
[10] = male, Sprague-Dawley, brain/plasma, po, 10 mg/kg, read-out: brain to plasma ratio
[11] = human, Caco-2, 2 h, 10 μM, pH 7.4

CC(Nn1nnc2ccccc21)c1ccccc1 (stereo not drawn) [N-(α-methylbenzyl)-1-AB, N-(α-methylbenzyl)-1-aminobenzotriazole]
IC50 (CYP2B6): 60 nM

CC[C@@]1(c2ccccc2)C(=O)NC(=O)N(Cc2ccccc2)C1=O [(R)-N-3-benzyl-Phenobarb-ital, (R)—N-3-benzylphenobarbital]
IC50 (CYP2C19): 300 nM

Lucifer yellow [reference compound]
transfer across Caco-2 monolayer (integrity) (Caco-2 cells; Caco-2): ≤ 0.05%

CCOc1ccc2ccc(=O)oc2c1 [7-ethoxycoumarin, reference compound]
metabolized after incubation (human hepatocytes [1]; 100 μM): 68.9%

O=C1NC[C@]2(c3ccc(Cl)c(Cl)c3)C[C@H]12 [Compound 2, (1S,5R)-5-(3,4-dichlorophenyl)-3-azabicyclo[3.1.0]hexan-2-one hydrochloride]
formation: area under the curve ratio of analyte to internal standard bicifadine-d5 ([2]; 0 mM NADPH at 37° C): 0.04 ± 0.00 | formation: area under the curve ratio of analyte to internal standard bicifadine-d5 ([2]; 1 mM NADPH at 37° C.): 0.08 ± 0.01 | quantity formed in presence of NADPH versus absence of NADPH ([2]; 1 mM vs 0 mM NADPH): 2 fold | formation: area under the curve ratio of analyte to internal standard bicifadine-d5 [3, 8]: 0.05 ± 0.01 | formation: area under the curve ratio of analyte to internal standard bicifadine-d5 [3, 9]: 0.06 ± 0.01 | formation after 37° C. pre-incubation versus 45° C. pre-incubation [3]: did not alter | effect of MAO-A inhibitor clorgyline on lactam formation [4]: concentration-dependently decreased | effect of MAO-B inhibitor selegiline on lactam formation [4]: did not have an effect | plasma level, mean±SEM ([5]; 0.5 hours): 1153±610 | plasma level, mean±SEM ([5]; 1 hour): 1620±303 | plasma level, mean±SEM ([5]; 2 hours): 3831±1127 | plasma level, mean±SEM ([5]; 4 hours): 8896±794 | Kp at 0.5 h [5, 10]: 1.1 | Kp at 1 h [5, 10]: 1.3 | Kp at 2 h [5, 10]: 1.4 | Kp at 4 h [5, 10]: 1.7 | affinity for monoamine transporters (monoamine transporters): low affinity

O=c1ccc2ccc(O)cc2o1 [7-hydroxycoumarin]
metabolized after incubation (human hepatocytes [6]): 99.1%

Cn1c(=O)c2c(ncn2C)n(C)c1=O [Caffeine]
fraction unbound at 60 min, 1 μM ([7]; 1 μM, mean and SEM of triplicate, read-out: % Bound (converted)): 0.73 | fraction unbound at 60 min, 10 μM ([7]; 10 μM, mean and SEM of triplicate, read-out: % Bound (converted)): 0.641 | fraction unbound at 60 min ([7]; average of 1 and 10 μM): 0.685

C[N+](C)([O-])CCCOc1nn(Cc2ccccc2)c2ccccc12 [Benzydamine N-oxide, reference compound]
formation: area under the curve ratio of analyte to internal standard bicifadine-d5 [3, 8]: 35.70 ± 0.86 | formation: area under the curve ratio of analyte to internal standard bicifadine-d5 [3, 9]: 7.68 ± 1.51 | formation after 37° C. pre-incubation versus 45° C. pre-incubation [3]: 4.6 fold

Clc1ccc([C@]23CNC[C@H]2C3)cc1Cl [Amitifadine, (1R,5S)-(+)-1-(3,4-dichlorophenyl)-3-azabicyclo[3.1.0]hexane hydrochloride]
Mass balance % AP→BL (Caco-2 cells; [11]): 62% | Mass balance % BL→AP (Caco-2 cells; [11]): 88% | parent remaining unchanged after incubation (human hepatocytes [1]; 87 μM): 82.4%
